For orientation: IC50 means the midpoint of a concentration-inhibition curve. Lower therefore signals higher potency. A word on the EC50: it is the midpoint of the concentration-response curve. Read a low EC50 as a more potent agent.

The source of these data is US20240246964A1 (Arbutus Biopharma Corporation, priority 2021, published 2024).

Assay [1] deals with PD-L1 His protein / PD-1 Fc protein (Homo sapiens (Human), UniProt Q9NZQ7). The assay is described as follows: HTRF Assay (PD-1/PD-L1 interaction). Type of assay: binding. Conditions: PD-L1 His 6 nM, PD-1 Fc 6 nM.
PD-L1 His protein / PD-1 Fc protein, sequence (Q9NZQ7 19-238): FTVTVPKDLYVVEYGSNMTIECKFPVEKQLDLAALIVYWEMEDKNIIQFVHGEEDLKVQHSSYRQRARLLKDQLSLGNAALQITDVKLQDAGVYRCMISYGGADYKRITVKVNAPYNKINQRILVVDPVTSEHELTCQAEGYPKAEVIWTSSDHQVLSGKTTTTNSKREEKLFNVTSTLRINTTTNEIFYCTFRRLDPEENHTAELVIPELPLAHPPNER
In the next assay the target is human PD-L1 (Homo sapiens (Human), UniProt Q9NZQ7). The experiment in a line: T cell activation luciferase reporter cell culture system (T Cell Activation Assay). Conditions: luciferase reporter assay; PD-L1 aAPC/CHO-K1 cells with PD-1 effector Jurkat T cells. Type of assay: cell-based. (A reporter such as luciferase makes a cellular process visible.)
human PD-L1, sequence (Q9NZQ7 19-290): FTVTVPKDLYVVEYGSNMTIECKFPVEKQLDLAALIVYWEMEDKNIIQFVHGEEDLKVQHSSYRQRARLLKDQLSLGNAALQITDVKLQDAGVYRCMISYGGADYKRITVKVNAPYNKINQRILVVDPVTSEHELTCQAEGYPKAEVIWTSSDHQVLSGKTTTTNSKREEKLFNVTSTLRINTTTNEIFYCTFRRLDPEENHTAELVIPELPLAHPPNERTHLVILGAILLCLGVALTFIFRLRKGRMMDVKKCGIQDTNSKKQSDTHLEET

As to “2-(4-(3-Chloro-4-(2-chloro-3-(5-methoxy-6-((7-oxo-2,6-diazaspiro[3.4]octan-2-yl)methyl)pyridin-3-yl)phenyl)pyridin-2-yl)-2-methoxybenzyl)-2,6-diazaspiro[3.4]octan-7-one [Example 566]”, half-maximal inhibition in assay [1] (IC50) was put at 0.93 nM. On human PD-L1, the midpoint of the response, the EC50, lay at 341 nM.

`COc1nc(-c2cccc(-c3ccnc(-c4ccc5c(c4)CCCC5NC[C@@H]4CCC(=O)N4)c3Cl)c2Cl)ccc1CNC[C@@H]1CCC(=O)N1` (mixture of isomers) [Compound 112, (5S)-5-((((6-(2-chloro-3-(3-chloro-2-(5-((((S)-5-oxopyrrolidin-2-yl)methyl)amino)-5,6,7,8-tetrahydronaphthalen-2-yl)pyridin-4-yl)phenyl)-2-methoxypyridin-3-yl)methyl)amino)methyl)pyrrolidin-2-one]: the IC50 in assay [1] worked out at 1 nM. For the same molecule, the response on human PD-L1 was half-maximal at 50.5 nM (EC50).

For the molecule `COc1nc(-c2cccc(-c3ccnc(-c4ccc5c(c4)CCCC5NC[C@H](C)O)c3Cl)c2Cl)ccc1CNC[C@@H]1CCC(=O)N1` (mixture of isomers) [Compound 113, (5S)-5-((((6-(2-chloro-3-(3-chloro-2-(5-(((S)-2-hydroxypropyl)amino)-5,6,7,8-tetrahydronaphthalen-2-yl)pyridin-4-yl)phenyl)-2-methoxypyridin-3-yl)methyl)amino)methyl)pyrrolidin-2-one], the 50% inhibitory concentration (IC50) in assay [1] came to 0.7 nM. The 50% effective concentration (EC50) on human PD-L1 is 185 nM.

Regarding `COc1cc(-c2nccc(-c3ccnc(-c4ccc(CNC[C@@H]5CCC(=O)N5)c(OC)c4)c3Cl)c2Cl)ccc1CNC[C@@H]1CCC(=O)N1` [Compound 4, (5S,5′S)-5,5′-(((((3,3′-dichloro-[4,4′-bipyridine]-2,2′-diyl)bis(2-methoxy-4,1-phenylene))bis(methylene))bis(azanediyl))bis(methylene))bis(pyrrolidin-2-one)], 8.3 nM corresponded to half-maximal inhibition in assay [1] (IC50). Also, the EC50 at human PD-L1 came out at 96.3 nM.

On to `CN1CCNCc2ccc(-c3nccc(-c4cccc(-c5ccc6c(CNC[C@@H]7CCC(=O)N7)cn(C)c6n5)c4Cl)c3Cl)cc21` [Compound 9, (S)-5-((((6-(2-chloro-3-(3-chloro-2-(1-methyl-2,3,4,5-tetrahydro-1H-benzo[e][1,4]diazepin-8-yl)pyridin-4-yl)phenyl)-1-methyl-1H-pyrrolo[2,3-b]pyridin-3-yl)methyl)amino)methyl)pyrrolidin-2-one], for which the midpoint of inhibition in assay [1], the IC50, lay at 15.5 nM. In addition, the half-maximal effective concentration (EC50) at human PD-L1 came to 212 nM.

The molecule `COc1cc(-c2nccc(-c3ccnc(-c4cc(F)c(CNC[C@@H]5CCC(=O)N5)c(OC)c4)c3Cl)c2Cl)cc(F)c1CNC[C@@H]1CCC(=O)N1` [Compound 12, (5S,5′S)-5,5′-(((((3,3′-dichloro-[4,4′-bipyridine]-2,2′-diyl)bis(2-fluoro-6-methoxy-4,1-phenylene))bis(methylene))bis(azanediyl))bis(methylene))bis(pyrrolidin-2-one)] had an IC50 in assay [1] of 0.1 nM. In addition, on human PD-L1, the EC50 is 67.1 nM.

With `COc1cc(-c2nccc(-c3ccnc(-c4ccc5c(CNC[C@@H]6CCC(=O)N6)cn(C)c5c4)c3Cl)c2Cl)ccc1CNC[C@@H]1CCC(=O)N1` [Compound 14, (S)-5-(((4-(3,3′-dichloro-2′-(1-methyl-3-(((((S)-5-oxopyrrolidin-2-yl)methyl)amino)methyl)-1H-indol-6-yl)-[4,4′-bipyridin]-2-yl)-2-methoxybenzyl)amino)methyl)pyrrolidin-2-one], in assay [1], the IC50 amounted to 0.6 nM. Moreover, the EC50 on human PD-L1 is 165 nM.

`Cn1cc(CNC[C@@H]2CCC(=O)N2)c2ccc(-c3nccc(-c4ccnc(-c5ccc6c(CNC[C@@H]7CCC(=O)N7)cn(C)c6c5)c4Cl)c3Cl)cc21` [Compound 15, (5S,5′S)-5,5′-(((((3,3′-dichloro-[4,4′-bipyridine]-2,2′-diyl)bis(1-methyl-1H-indole-6,3-diyl))bis(methylene))bis(azanediyl))bis(methylene))bis(pyrrolidin-2-one)] yielded an IC50 in assay [1] of 108 nM. Moreover, the EC50 at human PD-L1 was determined as 10000 nM.
